Data published in US20070059260A1, “Benzyl-1,3-thiazolidine-2,4-dione compounds for promoting and/or inducing and/or stimulating the pigmentation of keratin materials and/or for limiting their depigmentation and/or whitening” (L'OREAL, priority 2005, published 2007).

Tests used:
Type-1 15-PGDH = target: T1, Type-1 15-PGDH (Homo sapiens, UniProt P15428); assay: Test on type-1 15-PGDH (spectrophotometric, NAD/PGE2, 340 nm); assay type: biochemical; conditions: concentration reducing enzymatic activity of 15-PGDH by 50%; 37° C., pH 7.4 Tris buffer, 1.5 mM β-NAD, 50 μM Prostaglandin E2; read-out: IC50dh or % inhibition at 100 μM
T1 construct: made in house
T1 sequence (P15428 1-266): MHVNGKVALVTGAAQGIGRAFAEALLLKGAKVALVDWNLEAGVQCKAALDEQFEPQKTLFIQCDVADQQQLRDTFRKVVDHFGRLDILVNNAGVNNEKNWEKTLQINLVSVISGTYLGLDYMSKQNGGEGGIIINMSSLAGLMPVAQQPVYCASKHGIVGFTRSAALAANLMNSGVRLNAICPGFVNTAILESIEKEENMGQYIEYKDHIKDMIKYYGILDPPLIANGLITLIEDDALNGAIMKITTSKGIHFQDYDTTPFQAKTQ
Protocol: The enzyme 15-PGDH is obtained as described in FR 02/05067 filed in the name of L'Oreal, as a suspension in a medium adjusted to a concentration of 0.3 mg/mL and then blocked at −80° C. For the purposes of the test, this suspension is thawed and stored in ice.
In parallel, a 100 mM, pH 7.4 Tris buffer containing 0.1 mM of dithiothreitol (D5545, Sigma-Aldrich, L'isle D'Abeau Chesne, BP 701, 38297, Saint Quentin Fallavier), 1.5 mM of β-NAD (N6522, Sigma-Aldrich, L'isle D'Abeau Chesne, BP 701, 38297, Saint Quentin Fallavier), and 50 μM of Prostaglandin E2 (P4172, Sigma-Aldrich, L'isle D'Abeau Chesne, BP 701, 38297, Saint Quentin Fallavier) is prepared.
0.965 ml of this buffer (brought to 37° C. beforehand) is introduced into the cuvette of a spectrophotometer (Perkin-Elmer, Lambda 2) thermostatically maintained at 37° C., the measuring wavelength of which is set at 340 nm. 0.035 mL of enzymatic suspension at 37° C. is introduced into the cuvette concomitantly with the recording (corresponding to an increase in the optical density at 340 nm). The maximum reaction rate is recorded.
The test values (containing the compounds of formula (I)) are compared with the control value (without compound of formula (I)); the results indicated represent either the percentage inhibition of the enzymatic activity of 15-PGDH for a given concentration of compound of formula (I), or the concentration at which the compound of formula (I) reduces the enzymatic activity of 15-PGDH by 50%, namely IC50dh.

SMILES	IC50 (Type-1 15-PGDH)	melting point
CC(C)(C)c1ccc(Oc2ccccc2CC2SC(=O)NC2=O)cc1 (centres unmarked) [Compound 4, 5-[2-(4-tert-Butylphenoxy)benzyl]-1,3-thiazolidine-2,4-dione]	400 nM	–
O=C1NC(=O)C(Cc2ccccc2Oc2ccc(Cl)cc2Cl)S1 (centres unmarked) [Compound 2]	1210 nM	–

Second part, the compound after the results:

IC50 (Type-1 15-PGDH)	melting point	SMILES
580 nM	–	CC(C)(C)c1ccc(Oc2cccc(CC3SC(=O)NC3=O)c2)cc1 (centres unmarked) [Compound 5]
–	84 to 85 °C	O=C1NC(=O)C(Cc2ccccc2Oc2ccccc2)S1 (centres unmarked) [Example 1, 5-(2-phenoxybenzyl)-1,3-thiazolidine-2,4-dione]
2750 nM	–	O=C1NC(=O)C(Cc2ccccc2Oc2ccccc2)S1 (centres unmarked) [Compound 3]
